Data taken from patent US9695155B2, “Herbicidal substituted pyrimidinyloxy benzene compounds” (E. I. DU PONT DE NEMOURS AND COMPANY, priority 2013, dated 2017).

What was measured:
barnyardgrass [1] = experiment: Test A preemergence; type: in vivo, Echinochloa crus-galli
Procedure, shortened: (§1)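 Compounds in non-phytotoxic solvent with surfactant applied as soil spray preemergence, or postemergence to plants 2-10 cm at one- to two-leaf stage, in loam/sand. After approximately 10 days in greenhouse, injury rated visually versus untreated controls, 0 (no effect) to 100 (complete control).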

pigweed [2] = experiment: Test A preemergence; type: in vivo, Amaranthus retroflexus
Procedure, shortened: as §1

wheat [3] = experiment: Test A preemergence; type: in vivo, Triticum aestivum
Procedure, shortened: as §1

corn [4] = experiment: Test A preemergence; type: in vivo, Zea mays
Procedure, shortened: as §1

barnyardgrass [5] = experiment: Test A postemergence; type: in vivo, Echinochloa crus-galli
Procedure, shortened: as §1

giant foxtail = experiment: Test A postemergence; type: in vivo, Setaria faberii
Procedure, shortened: as §1

pigweed [6] = experiment: Test A postemergence; type: in vivo, Amaranthus retroflexus
Procedure, shortened: as §1

wheat [7] = experiment: Test A postemergence; type: in vivo, Triticum aestivum
Procedure, shortened: as §1

corn [8] = experiment: Test A postemergence; type: in vivo, Zea mays
Procedure, shortened: as §1

rice = experiment: Test B flooded paddy test; type: in vivo, Oryza sativa; details: Flood, 250 g ai/ha; 0 to 100 scale where 0 is no effect and 100 is complete control
Procedure, shortened: (§2)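 Greenhouse flooded-pot test: compounds dosed into 3 cm standing water over 2-leaf plants, flood held constant. Rated visually after 13–15 days on 0–100 (complete control = 100); a dash marks no test result.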

sedge, umbrella = experiment: Test B flooded paddy test; type: in vivo, Cyperus difformis; details: Flood, 250 g ai/ha; 0 to 100 scale where 0 is no effect and 100 is complete control
Procedure, shortened: as §2

Heteranthera limosa = experiment: Test B flooded paddy test; type: in vivo; details: Flood, 250 g ai/ha; 0 to 100 scale where 0 is no effect and 100 is complete control
Procedure, shortened: as §2

galium = experiment: Test C postemergence; type: in vivo, Galium aparine; details: for Plant response rating (0 to 100), Galium: postemergence; for Plant response rating, Galium: Postemergence, scale 0 to 100 (0 no effect, 100 complete control)
Procedure, shortened: (§3)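 Sown in loam/sand → sprayed pre-emergence; or grown to 1–4 leaves in peat mix → sprayed post-emergence. Same solvent/surfactant formulation both ways. Greenhouse 13–15 d. Score 0–100 visual.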

pigweed [9] = experiment: Test C postemergence; type: in vivo, Amaranthus retroflexus; details: for Plant response rating, Pigweed: Postemergence, scale 0 to 100 (0 no effect, 100 complete control)
Procedure, shortened: as §3

barnyardgrass [10] = experiment: Test C postemergence; type: in vivo, Echinochloa crus-galli; details: for Plant response rating (0 to 100), Barnyardgrass: postemergence; for Plant response rating, Barnyardgrass: Postemergence, scale 0 to 100 (0 no effect, 100 complete control)
Procedure, shortened: as §3

kochia = experiment: Test C postemergence; type: in vivo, Kochia scoparia; details: for Plant response rating (0 to 100), Kochia: postemergence; for Plant response rating, Kochia: Postemergence, scale 0 to 100 (0 no effect, 100 complete control)
Procedure, shortened: as §3

velvetleaf = experiment: Test C postemergence; type: in vivo, Abutilon theophrasti; details: for Plant response rating (0 to 100), Velvetleaf: postemergence; for Plant response rating, Velvetleaf: Postemergence, scale 0 to 100 (0 no effect, 100 complete control)
Procedure, shortened: as §3

[11] = 125 g ai/ha, 0 to 100 scale where 0 is no effect and 100 is complete control
[12] = 500 g ai/ha, 0 to 100 scale, 0 no effect, 100 complete control, approx. 10 days
[13] = 500 g ai/ha, 0 to 100 scale, 0 no effect, 100 complete control

N#Cc1cccc(Oc2ncc(Br)cn2)c1-n1cc(Br)cn1 [Compound 57]
Plant response rating, Barnyardgrass (barnyardgrass [1]; [11]): 60 | Barnyardgrass plant response rating (barnyardgrass [1]; [12]): 100 | Plant response rating, Pigweed (pigweed [2]; [11]): 100 | Pigweed plant response rating (pigweed [2]; [12]): 100 | Plant response rating, Wheat (wheat [3]; [11]): 0 | Wheat plant response rating (wheat [3]; [12]): 50 | Plant response rating, Corn (corn [4]; [11]): 0 | Corn plant response rating (corn [4]; [12]): 70 | Plant response rating, Barnyardgrass (barnyardgrass [5]; [11]): 90 | Plant response rating, Barnyardgrass (barnyardgrass [5]; [13]): 100 | Plant response rating, Foxtail, Giant (giant foxtail; [11]): 80 | Plant response rating, Foxtail, Giant (giant foxtail; [13]): 100 | Plant response rating, Pigweed (pigweed [6]; [11]): 100 | Plant response rating, Pigweed (pigweed [6]; [13]): 100 | Plant response rating, Wheat (wheat [7]; [11]): 0 | Plant response rating, Wheat (wheat [7]; [13]): 30 | Plant response rating, Corn (corn [8]; [11]): 30 | Plant response rating, Corn (corn [8]; [13]): 90 | Plant response rating, Rice (rice): 0 | Plant response rating, Sedge, Umbrella (sedge, umbrella): 80 | Plant response rating, Ducksalad (Heteranthera limosa): 60 | Plant response rating (0 to 100), Galium (galium; 125 g ai/ha): 70 | Plant response rating (0 to 100), Galium (galium; 250 g ai/ha): 95 | Plant response rating, Galium (galium; 31 g ai/ha, 13 to 15 days): 50 | Plant response rating, Galium (galium; 62 g ai/ha): 50 | Plant response rating (0 to 100), Pigweed (pigweed [9]; 250 g ai/ha, postemergence): 95 | Plant response rating, Pigweed (pigweed [9]; 31 g ai/ha, 13 to 15 days): 65 | Plant response rating, Pigweed (pigweed [9]; 62 g ai/ha): 85 | Plant response rating (0 to 100), Barnyardgrass (barnyardgrass [10]; 125 g ai/ha): 10 | Plant response rating (0 to 100), Barnyardgrass (barnyardgrass [10]; 250 g ai/ha): 15 | Plant response rating, Barnyardgrass (barnyardgrass [10]; 31 g ai/ha, 13 to 15 days): 5 | Plant response rating, Barnyardgrass (barnyardgrass [10]; 62 g ai/ha): 10 | Plant response rating (0 to 100), Kochia (kochia; 125 g ai/ha): 90 | Plant response rating (0 to 100), Kochia (kochia; 250 g ai/ha): 100 | Plant response rating, Kochia (kochia; 31 g ai/ha, 13 to 15 days): 85 | Plant response rating, Kochia (kochia; 62 g ai/ha): 90 | Plant response rating (0 to 100), Velvetleaf (velvetleaf; 125 g ai/ha): 40 | Plant response rating (0 to 100), Velvetleaf (velvetleaf; 250 g ai/ha): 60 | Plant response rating, Velvetleaf (velvetleaf; 31 g ai/ha, 13 to 15 days): 25 | Plant response rating, Velvetleaf (velvetleaf; 62 g ai/ha): 35
